According to patent US12441775B2, “BCL-W polypeptides and mimetics for treating or preventing chemotherapy-induced peripheral neuropathy and hearing loss” (Dana-Farber Cancer Institute, Inc., priority 2016, dated 2025):

What was measured:
E15 DRG sensory neurons = assay: Apoptosis analysis (condensed/total nuclei) in cell body compartment; type: cell-based, rat; conditions: paclitaxel to either subcellular compartment
Protocol: Cell culture. Compartmented chamber (Campenot) cultures were prepared as described (see, e.g., Fenstermacher et al., Springer Protocols: Neuromethods, 103:105-124 (2015)), with modifications. Briefly, DRGs from embryonic day 15 (E15) rats of either sex were dissected and trypsinized. DRGs (1.2×10^5 cells) were plated in the center compartment of a Teflon divider (Camp10, Tyler Research; Campenot, 1982) affixed to a p35 culture dish coated with growth factor reduced Matrigel basement membrane (BD Biosciences) 1:45 in DMEM. Cultures were maintained in media consisting of Neurobasal (Invitrogen) with 2% B27 supplement (Invitrogen), 1% penicillin-streptomycin, 1% GlutaMAX (Life Technologies), 0.08% glucose, and 0.3 μM cytosine arabinoside (AraC) at 37° C., 7.5% CO2; BDNF+NGF (PeproTech) were added to the cell body compartment at a concentration of 10 ng/ml and to the axon compartment at a concentration of 100 ng/ml for 2d. On day 3, media was replaced and the AraC was omitted. On day 5, neurotrophins were removed from the cell body compartment and reduced to 1 ng/ml in the axon compartments for 3-5 days. […]
Axonal degeneration assay. […] Images of distal axon tips were obtained using a 40× air objective, and axonal degeneration was quantified as a degeneration index, as previously described (Cosker et al., Neuroscience, 33:5195-5207 (2013)). […]

mice = assay: Accelerating RotaRod motor function test; type: in vivo, mouse; conditions: paclitaxel-treated mice, 4 mg/kg every other day for 8 days
Protocol: Paclitaxel treatment and behavioral testing. 2 month old age-matched bclw−/− and bclw+/+ mice (17-30 g) of either sex were injected intraperitoneally (IP) with 4 mg/kg paclitaxel (Bristol-Myers Squibb) every other day for 8 days (4 total injections). Paclitaxel was prepared as 1 part 6 mg/ml paclitaxel stock solution diluted in vehicle (1:1 v/v Cremophor EL [EMD Millipore] and dehydrated ethanol) and 2 parts sterile saline and injected at 10 μl/g. Control mice were injected with 1 part vehicle and 2 parts saline. […] For three days prior to the baseline testing, mice were weighed, trained on an automated RotaRod apparatus (4 rpm for 1 min without falling), and habituated in von Frey cages. The next two days, baseline behavioral performance was assessed and averaged. The first paclitaxel injection was given three days later, and mice were weighed and behaviorally tested 10 days after the final injection. To assay motor function, mice were placed on the RotaRod with a ramp of 4-40 rpm and 0.4 rpm/sec acceleration, and latency to fall was measured. […] Withdrawal threshold was determined to be the applied force at which the animal withdrew the stimulated paw on at least 2 of 10 applications. […] Mouse behavior was assessed by an experimenter blind to genotype and condition.

[1] = tested on: axons of E15 DRG sensory neurons; assay: Axonal degeneration assay in compartmented chamber cultures (degeneration index); type: cell-based, rat; conditions: for axon degeneration (axonal fragmentation, degeneration index): 24 hours
Protocol: Cell culture. Compartmented chamber (Campenot) cultures were prepared as described (see, e.g., Fenstermacher et al., Springer Protocols: Neuromethods, 103:105-124 (2015)), with modifications. Briefly, DRGs from embryonic day 15 (E15) rats of either sex were dissected and trypsinized. DRGs (1.2×10^5 cells) were plated in the center compartment of a Teflon divider (Camp10, Tyler Research; Campenot, 1982) affixed to a p35 culture dish coated with growth factor reduced Matrigel basement membrane (BD Biosciences) 1:45 in DMEM. Cultures were maintained in media consisting of Neurobasal (Invitrogen) with 2% B27 supplement (Invitrogen), 1% penicillin-streptomycin, 1% GlutaMAX (Life Technologies), 0.08% glucose, and 0.3 μM cytosine arabinoside (AraC) at 37° C., 7.5% CO2; BDNF+NGF (PeproTech) were added to the cell body compartment at a concentration of 10 ng/ml and to the axon compartment at a concentration of 100 ng/ml for 2d. On day 3, media was replaced and the AraC was omitted. On day 5, neurotrophins were removed from the cell body compartment and reduced to 1 ng/ml in the axon compartments for 3-5 days. […] For calpain inhibition experiments, 20 μM calpain inhibitor III (VWR) and paclitaxel were added simultaneously to distal axon compartment.
Axonal degeneration assay. Compartmented chamber cultures were fixed at room temperature with 4% PFA diluted 1:2 in media for 10 min, then undiluted 4% PFA for an additional 20 min. Cultures were permeabilized with 0.1% TritonX-100 for 10 min, blocked in 3% BSA and 0.1% Triton X-100 for 1 hour at room temperature, and incubated with mouse anti-Tuj1 (1:400; clone Tuj1; Covance) overnight at 4° C. Cultures were then incubated with goat anti-mouse AlexaFluor (1:1000; Invitrogen) for 1 hour at room temperature and counterstained with DAPI. Images of distal axon tips were obtained using a 40× air objective, and axonal degeneration was quantified as a degeneration index, as previously described (Cosker et al., Neuroscience, 33:5195-5207 (2013)). Apoptosis analysis was carried out on the same cultures by taking images in the cell body compartment and counting total and condensed nuclei in NIH ImageJ software by an observer blind to condition.
Protein and peptide introduction. Recombinant His-tagged Bclw, Bcl2, and BclxL proteins (R&D Systems) or control β-galactosidase protein were introduced into cell bodies or axons of compartmented chamber cultures as described (e.g., Cosker et al., Nature Neuroscience, 19:690-696 (2016)). Briefly, 1 μg/μ1 protein was introduced into cultures using 2 μl Chariot reagent (Active Motif). To confirm expression of His-tagged proteins, cell bodies and axons were lysed in nonionic detergent, and protein lysates were separated as above and blotted with the following antibodies: anti-His (1:1000; Novagen) and anti-pan-actin (1:1000; Cell Signaling Technology). FITC-tagged SAHB peptides (BH4-Bclw, BH4-Bcl2, and BH4-BclxL; stock solutions 1 mM in DMSO) were introduced into cell bodies or axons using 350 ng peptide and 2 μl of Chariot reagent diluted 1:10 in water. Control was no peptide with 2 μl of 1:10 diluted Chariot. To confirm peptide expression, cultures were processed for axonal degeneration assay as above, and FITC immunofluorescence was examined with a 40× air objective. Paclitaxel was added to cultures 1 hour after protein or peptide transfection.

calpain = assay: Calpain protease activity luminescence assay; type: cell-based, rat; conditions: DRG neurons treated 48 hours with paclitaxel, normalized to DMSO
Protocol: Calpain protease activity luminescence assay. DRG neurons in mass cultures were treated with vehicle (0.1% DMSO for 48h), paclitaxel (30 nM, 600 nM, or 1.2 μM for 48 hours), or calcium chloride (3 mM for 24 hours). Cultures were harvested in 1× Passive Lysis Buffer (Promega). The resulting lysate was spun 10,000×g for 5 min at 4° C., and 50 μL supernatant was combined with 50 μL Calpain-Glo Reagent (Promega) in a 96 well plate. The plate was shaken briefly and incubated for 40 min in the dark; luminescence intensity was measured with a microplate reader and normalized to protein concentration.

axon degeneration (axonal fragmentation, degeneration index) ([1]; paclitaxel 30 nM added to cell body compartment): no effect | axon degeneration (axonal fragmentation, degeneration index) ([1]; paclitaxel 30 nM added to distal axon compartment): increase axon degeneration | axonal degeneration ([1]; paclitaxel after shRNA knockdown of Bclw): further increased axonal degeneration
Structure (SMILES): CC(=O)O[C@H]1C(=O)[C@@]2(C)[C@H]([C@H](OC(=O)c3ccccc3)[C@]3(O)C[C@H](OC(=O)[C@H](O)[C@@H](NC(=O)c4ccccc4)c4ccccc4)C(C)=C1C3(C)C)[C@]1(OC(C)=O)CO[C@@H]1C[C@@H]2O [paclitaxel]
cell body apoptosis assessed by nuclear condensation (E15 DRG sensory neurons): did not induce cell body apoptosis | motor function (latency to fall) (mice): normal motor function | calpain activity (luminescence) (calpain): increased calpain activity in a dose-dependent manner
